Patent US20240391889A1, “ANTIMICROBIAL COMPOUNDS AND THE METHODS OF USE” (priority 2021, published 2024)
Converted amounts (≈) assume the structure as drawn. Numbered stars: 1 amine (or outer) side, 2 acyl side, 3 side chain; on linkers, the order of the positions; unused ones are H or OH. Square brackets hold non-standard residues; d marks the D form. Peptide text beside a SMILES is read from it. * marks the point of attachment. N(1S-cyclohexylethyl)Gly = C[C@H](NCC(=O)O)C1CCCCC1; N(2-thienylmethyl)Gly = O=C(O)CNCc1cccs1; NCyclohexylmethylGly = O=C(O)CNCC1CCCCC1; N(tridecyl)Gly = CCCCCCCCCCCCCNCC(=O)O; X2 = O=C(CN(c1cccc2ccccc12)[*:1])[*:2]; N(4-MeOBn)Gly = COc1ccc(CNCC(=O)O)cc1; N(4-F-Bzl)Gly = O=C(O)CNCc1ccc(F)cc1; X1 = CC(c1ccccc1)N(CC(=O)[*:2])[*:1]; Gly(N-2-aminoethyl) = NCCNCC(=O)O; Myristoyl = CCCCCCCCCCCCCC(=O)*; NFurfurylGly = O=C(O)CNCc1ccco1; Gly(N(CH2)3NH2) = NCCCNCC(=O)O; Nphe = O=C(O)CNCc1ccccc1; NPrGly = CCCNCC(=O)O; Nlys = NCCCCNCC(=O)O

Assays:
in vitro = assay type: cell-based; settings: human, HepG2 hepatocellular carcinoma cells
Experimental: (§1) The mammalian cell lines that were tested (HepG2, 3T3, and HaCat) were incubated with RMG9-11 for 72 hours and cell viability was determined via mitochondrial activity using an MTT reduction assay where viable cells reduce MTT to formazan. Toxicity is reported as the concentration of the peptoid that results in a 50% reduction in viable cells, termed toxicity dose 50% or TD50. […] SR is defined as the TD50 divided by MIC and provides a measure of the therapeutic window for a compound. Typically for most lead compounds that would continue through development and optimization, a SR of 10 is preferred while an SR of 100 is more desirable for a compound moving into preclinical animal model evaluation.
(§2) Hepatocellular carcinoma (HepG2), mouse fibroblast (3T3), and human keratinocyte (HaCat) cells were cultured in Dulbeco modified eagle media (DMEM) containing 10% fetal bovine serum (FBS) and 1% penicillin, streptomycin, and glutamine (PSG) at 37° C. and 5% CO2. Cells were collected and adjusted to […] to 4×10^5 cells/mL in phenol-red free DMEM and plated (100 μL) 96 well plates. 2-fold serial dilutions of 10× peptoid (11.1 μL) were added to each well in triplicate. Water (vehicle) was used as a negative control. Plates were incubated at 37° C. in 5% CO2 for 72 hours. Thiazolyl blue tetrazolium bromide (MTT) was added to each well (5 mg/mL; 20 μL) and incubated for 3 hours. Media was removed, DMSO (100 μL) was added, and plates were incubated at 37° C. for 10 minutes. Plates were read on a SPECTRAMAX M5 plate reader (Abs. 570 nm). The concentration of compound resulting in a 50% reduction in growth compared to control (toxicity dose 50%; TD50) was determined using GRAFIT. This procedure was repeated three times on separate days.

HepG2 liver cells = test: in vitro; assay type: cell-based
Experimental: as §1, §2

C. albicans = assay type: cell-based, Candida albicans; settings: 24 h
Text: (§3) This screening led to the discovery of RMG9-11 (FIG. 2C). The minimum inhibitory concentration (MIC) of resynthesized RMG9-11 was initially determined against C. albicans, C. neoformans, and the ESKAPE bacteria via CSLI guidelines (CLSI. Methods for Dilution Antimicrobial Susceptibility Tests for Bacteria That Grow Aerobically, 11th Edition. Clinical and Laboratory Standards Institute (2018); CLSI. Reference method for broth dilution antifungal susceptibility testing of yeasts; approved standard-third edition; CLSI document M27-A3. Clinical and Laboratory Standards Institute (2008)). […] C. albicans clinical isolates include a reference strain (M1), fluconazole susceptible strains (M4 and M6), and fluconazole resistant strains (M2, M3, M5, and M7). ATCC 64124 is multidrug resistant C. albicans strain that is resistant to amphotericin B, fluconazole, caspofungin, and flucytosine. All MICs were performed under CSLI guidelines in triplicate on at least three different days.
(§4) The minimum inhibitory concentration (MIC) of peptoids against fungal pathogens C. albicans and C. neoformans was determined following CLSI guidelines (Reference method for broth dilution antifungal susceptibility testing of yeasts; approved standard-third edition; CLSI document M27-A3.” CLSI. 2008.). Colonies were transferred from a streaked YPD plate to 0.85% saline to reach an OD530 between 0.18 and 0.25. This inoculant was diluted 1:100 into RPMI-MOPS and then further diluted 1:20 into RPMI-MOPS. 198 μL of inoculant was seeded into each well of a 96 well black-walled plate. 2-fold serial dilutions of 100× peptoid solutions were prepared in water and 2 μL of peptoid were added to each well in triplicate. […] MIC was defined as the lowest concentration of compound preventing fungal growth. This assay was repeated 3 times on separate days with each compound.

C. neoformans = assay type: cell-based, Cryptococcus neoformans; settings: 72 h
Text: as §3, §4

Compound	CC50 at 72 h (in vitro)	HepG2 TD50 (HepG2 liver cells)	toxicity compared to 911-M1 (HepG2 liver cells)	MIC C. albicans (C. albicans)	MIC C. neoformans (C. neoformans)	cytotoxicity compared to RMG9-11 (HepG2 liver cells)
CCCCCCCCCCCCCC(=O)NCC(=O)N(CCC)CC(=O)N(CC(=O)N(CCCCN)CC(=O)N(CC(=O)N(CC(=O)N(CCCN)CC(N)=O)Cc1ccco1)Cc1ccco1)C(C)c1ccccc1 (stereo not shown) [Compound 911-M18] (Myristoyl-G[NPrGly][X1][Nlys][NFurfurylGly][NFurfurylGly][Gly(N(CH2)3NH2)]-NH2)	152 ± 8.04 µg/mL (≈ 143 µM)	151.96 ± 8.04 µg/mL	slightly though not significantly better	6.25 µg/mL (≈ 5.89 µM)	6.25 µg/mL (≈ 5.89 µM)	
CCCCCCCCCCCCCNCC(=O)N(CCN)CC(=O)N(CC(=O)N(CCCCN)CC(=O)N(CC(=O)N(CC(=O)N(CCCN)CC(N)=O)Cc1ccccc1)Cc1ccco1)C(C)c1ccccc1 (stereo not shown) [Compound 911-M2] (H-[N(tridecyl)Gly][Gly(N-2-aminoethyl)][X1][Nlys][NFurfurylGly][Nphe][Gly(N(CH2)3NH2)]-NH2)	177 ± 20.5 µg/mL (≈ 170 µM)			6.25 to 12.5 µg/mL	3.13 µg/mL (≈ 3 µM)	dramatic decrease in cytotoxicity
CCCCCCCCCCCCCC(=O)NCC(=O)N(CCC)CC(=O)N(CC(=O)N(CCCCN)CC(=O)N(CC(=O)N(CC(=O)N(CCCN)CC(N)=O)Cc1ccccc1)Cc1ccco1)C(C)c1ccccc1 (stereo not shown) [Compound 911-M1] (Myristoyl-G[NPrGly][X1][Nlys][NFurfurylGly][Nphe][Gly(N(CH2)3NH2)]-NH2)	144 ± 22.6 µg/mL (≈ 135 µM)	144.5 ± 22.6 µg/mL		3.13 to 6.25 µg/mL	3.13 µg/mL (≈ 2.92 µM)	decreased cytotoxicity
CCCCCCCCCCCCCC(=O)NCC(=O)N(CCC)CC(=O)N(CC(=O)N(CCCCN)CC(=O)N(CC(=O)N(CC(=O)N(CCCN)CC(N)=O)C(C)c1ccccc1)Cc1ccco1)C(C)c1ccccc1 (stereo not shown) [Compound 911-M22] (Myristoyl-G[NPrGly][X1][Nlys][NFurfurylGly][X1][Gly(N(CH2)3NH2)]-NH2)	113 ± 41.9 µg/mL (≈ 104 µM)			6.25 µg/mL (≈ 5.76 µM)	3.13 µg/mL (≈ 2.88 µM)	
CCCCCCCCCCCCCNCC(=O)N(CCC)CC(=O)N(CC(=O)N(CCCCN)CC(=O)N(CC(=O)N(CC(=O)N(CCCN)CC(N)=O)Cc1ccccc1)Cc1ccco1)Cc1ccc(F)cc1 [Compound 911-M4] (H-[N(tridecyl)Gly][NPrGly][N(4-F-Bzl)Gly][Nlys][NFurfurylGly][Nphe][Gly(N(CH2)3NH2)]-NH2)	120 ± 36.9 µg/mL (≈ 114 µM)			6.25 µg/mL (≈ 5.97 µM)	1.56 µg/mL (≈ 1.49 µM)	
CCCCCCCCCCCCCC(=O)NCC(=O)N(CCC)CC(=O)N(CC(=O)N(CCCCN)CC(=O)N(CC(=O)N(CC(=O)N(CCCN)CC(N)=O)c1cccc2ccccc12)Cc1ccco1)C(C)c1ccccc1 (stereo not shown) [Compound 911-M15] (Myristoyl-G[NPrGly][X1][Nlys][NFurfurylGly][X2][Gly(N(CH2)3NH2)]-NH2)	122 ± 21.3 µg/mL (≈ 111 µM)			6.25 µg/mL (≈ 5.64 µM)	3.13 to 6.25 µg/mL	
CCCCCCCCCCCCCC(=O)NCC(=O)N(CCN)CC(=O)N(CC(=O)N(CCCCN)CC(=O)N(CC(=O)N(CC(=O)N(CCCN)CC(N)=O)Cc1ccccc1)Cc1ccco1)[C@@H](C)C1CCCCC1 [Compound 911-M12] (Myristoyl-G[Gly(N-2-aminoethyl)][N(1S-cyclohexylethyl)Gly][Nlys][NFurfurylGly][Nphe][Gly(N(CH2)3NH2)]-NH2)	145 ± 35 µg/mL (≈ 134 µM)			6.25 µg/mL (≈ 5.8 µM)	3.13 µg/mL (≈ 2.9 µM)	
CCCCCCCCCCCCCNCC(=O)N(CCN)CC(=O)N(CC(=O)N(CCCCN)CC(=O)N(CC(=O)N(CC(=O)N(CCCN)CC(N)=O)Cc1ccccc1)Cc1ccco1)[C@@H](C)C1CCCCC1 [Compound 911-M13] (H-[N(tridecyl)Gly][Gly(N-2-aminoethyl)][N(1S-cyclohexylethyl)Gly][Nlys][NFurfurylGly][Nphe][Gly(N(CH2)3NH2)]-NH2)	140 ± 33 µg/mL (≈ 133 µM)			6.25 µg/mL (≈ 5.95 µM)	3.13 µg/mL (≈ 2.98 µM)	
CCCCCCCCCCCCCC(=O)NCC(=O)N(CCC)CC(=O)N(CC(=O)N(CCCCN)CC(=O)N(CC(=O)N(CC(=O)N(CCCN)CC(N)=O)[C@@H](C)C1CCCCC1)Cc1ccco1)C(C)c1ccccc1 (stereo partly drawn) [Compound 911-M17] (Myristoyl-G[NPrGly][X1][Nlys][NFurfurylGly][N(1S-cyclohexylethyl)Gly][Gly(N(CH2)3NH2)]-NH2)	81.6 ± 5.97 µg/mL (≈ 74.8 µM)		markedly more toxic	6.25 µg/mL (≈ 5.73 µM)	3.13 to 6.25 µg/mL	
CCCCCCCCCCCCCC(=O)NCC(=O)N(CCC)CC(=O)N(CC(=O)N(CCCCN)CC(=O)N(CC(=O)N(CC(=O)N(CCCN)CC(N)=O)Cc1cccs1)Cc1ccco1)C(C)c1ccccc1 (stereo not shown) [Compound 911-M21] (Myristoyl-G[NPrGly][X1][Nlys][NFurfurylGly][N(2-thienylmethyl)Gly][Gly(N(CH2)3NH2)]-NH2)	135 ± 52.1 µg/mL (≈ 125 µM)			6.25 µg/mL (≈ 5.8 µM)	3.13 to 6.25 µg/mL	
CCCCCCCCCCCCCC(=O)NCC(=O)N(CCC)CC(=O)N(CC(=O)N(CCCCN)CC(=O)N(CC(=O)N(CC(=O)N(CCCN)CC(N)=O)Cc1ccc(OC)cc1)Cc1ccco1)C(C)c1ccccc1 (stereo not shown) [Compound 911-M16] (Myristoyl-G[NPrGly][X1][Nlys][NFurfurylGly][N(4-MeOBn)Gly][Gly(N(CH2)3NH2)]-NH2)	136 ± 39.6 µg/mL (≈ 123 µM)			6.25 µg/mL (≈ 5.67 µM)	3.13 to 6.25 µg/mL	
CCCCCCCCCCCCCC(=O)NCC(=O)N(CCC)CC(=O)N(CC(=O)N(CCCCN)CC(=O)N(CC(=O)N(CC(=O)N(CCCN)CC(N)=O)CC1CCCCC1)Cc1ccco1)C(C)c1ccccc1 (stereo not shown) [Compound 911-M20] (Myristoyl-G[NPrGly][X1][Nlys][NFurfurylGly][NCyclohexylmethylGly][Gly(N(CH2)3NH2)]-NH2)	79.6 ± 5.12 µg/mL (≈ 73.9 µM)		markedly more toxic	6.25 µg/mL (≈ 5.8 µM)	3.13 µg/mL (≈ 2.9 µM)	
